Literature values in patent US20120238571A1, “INDAZOLE DERIVATIVES AS PI 3-KINASE” (Glaxo Group Limited, priority 2009, published 2012).
Like-named read-outs stand apart in the source and are kept apart here.

Columns and labels:
[1] = system: Class I PI3-kinases
[2] = molecular target: CK2 protein kinase (Homo sapiens, UniProt P68400)
Chain of CK2 protein kinase (P68400 whole entry): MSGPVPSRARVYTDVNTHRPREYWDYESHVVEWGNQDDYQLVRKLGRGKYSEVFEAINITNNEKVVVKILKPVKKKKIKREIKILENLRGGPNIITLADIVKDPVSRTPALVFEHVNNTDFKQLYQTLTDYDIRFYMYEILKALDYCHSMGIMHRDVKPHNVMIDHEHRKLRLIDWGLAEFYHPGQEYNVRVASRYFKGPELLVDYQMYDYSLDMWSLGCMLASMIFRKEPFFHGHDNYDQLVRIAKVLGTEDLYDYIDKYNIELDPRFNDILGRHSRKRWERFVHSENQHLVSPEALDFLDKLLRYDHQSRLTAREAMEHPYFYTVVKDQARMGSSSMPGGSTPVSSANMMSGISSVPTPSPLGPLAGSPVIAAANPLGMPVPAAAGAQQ

Compound	IC50 ([1]; each of the four Class I PI3-kinases, read-out: IC50 against each of the various Class I PI3-kinases)	IC50 ([1]; each of the Class I PI3-kinases, Fruman et al. 1998, read-out: IC50 against each of these PI3-kinases)	IC50 [2]
COC[C@H]1OC(=O)c2coc3c2[C@@]1(C)C1=C(C3=O)[C@@H]2CCC(=O)[C@@]2(C)C[C@H]1OC(C)=O [wortmannin]	0.001 to 0.01 µM		
O=c1cc(N2CCOCC2)oc2c(-c3ccccc3)cccc12 [LY294002]		15 to 20 µM	5 to 10 µM
